Measured values taken from patent publication US6025385A, “Taxane derivatives and drugs containing the same” (Kabushiki Kaisha Yakult Honsha, priority 1996, dated 2000).
≈ marks a conversion by molar mass, not a printed value. Like-named read-outs stand apart in the source and are kept apart here.

Columns and labels:
[1] = system: cell strain KB derived from a human mouth cancer; assay: Growth inhibitory activity against KB cells (XTT assay); format: cell-based; settings: for GI50: Homo sapiens, 72 h, read-out: 50% Growth Inhibitory Concentration (GI50), KB; for Activity ratio: KB GI50 relative to Taxol (Taxol = 1.0)
Experimental: Growth Inhibitory Activities of Taxane Derivatives (1)
As a cell strain KB derived from a human mouth cancer, one purchased from Dainippon Pharmaceutical Co., Ltd. and stored in a lyophilized form at The Central Research Center, Yakult Honsha Co., Ltd. was used. In Dulbeccols modefied Earglets medium containing 10% fetal bovine serum (product of NISSUI PHARMACEUTICAL CO., LTD.), the KB was maintenance-cultured under the following conditions: 5%, CO2 -air, 37° C.
Each compound was used by dissolving it at a concentration of 10 mg/ml in DMSO.
On Day-1, cells which were in a logarithmic growth phase were inoculated at 2,000 cells/100 μl/well on 96-well microtiter plates (Falcon #3072) by using a phenol-red-free culture medium with 10% fetal bovine serum contained therein (Dulbecco's molefied Eargle's medium (Sigma)), and were cultured overnight. On Day 0, the compounds each of which had been diluted to 0.03 to 10,000 ng/ml with the same culture medium were added in 100 μl aliquots to the individual wells, and the cells were cultured for 3 days. Three wells were used per each drug concentration. Each plate was provided with three blank wells containing only the culture medium and also with eight wells as a drug-untreated control.
Before use, XTT (Sigma) was dissolved at a concentration of 1 mg/me in each culture media which as free of serum. Phenodin methosulfate (Sigma) dissolved at a concentration of 5 mM in PBS was added to the resulting solution at a volume ratio of 1/200. To each well, the solution so prepared was added in an amount of 50 μl per well. Subsequent to culture for 4 hours, OD was measured at 450 nm by ELISA.
Calculation of 50% Growth Inhibitory Concentration (GI50)
GI50 was calculated by interpolation from a concentration-growth inhibition rate (GIR). GIR was determined in accordance with the following formula: [formula] Bibiography Scudiero D A, et al., Cacer Res., 48, 4827-4833, 1988.
1994 Report of The Anticancer Agent Screening Special Committee, "Cancers and Chemotherapy", 21, 1306-1307.

[2] = Solubility in water (HPLC, shaken 2 hours at room temperature); settings: for Dissolved amount (Y): amount in 5 μl injected, purified water with 0.1 N hydrochloric acid, room temperature, 2 hours; for solubility thermodynamic at 2 h: water with 0.1 n hcl
Experimental: I) Preparation of calibration curves:
Using 20 μl portions of the standard solutions, tests were conducted by HPLC (operation conditions 1).
[HPLC operation conditions 1]
Column: Inertsil ODS-2 (5-250), 40 deg.
Mobile phase: 0.01 M KH2 PO4 --CH3 CN (5:4).
Detection: Ultraviolet absorption photometer (225 nm), 0.08AUFS.
To the respective suspensions, 0.1 N hydrochloric acid was added in amounts of 35 λl and 30 μl (1.1 eq.). By ultrasonication the resulting mixtures were formed into uniform suspensions, which were then shaken at room temperature for 2 hours. The thus-obtained mixtures were filtered through membrane filters (0.22 pm), and the filtrates were provided as test solutions. Using 5 μl portions of the test solutions, tests were conducted by HPLC (operation conditions 1).
I) Preparation of calibration curve:
By ultra-sonication the suspension was formed into a uniform suspension, which was then shaken at room temperature for 2 hours.
Using 20 At of the standard solution, a test was conducted by HPLC (operation conditions 1).
Operation conditions for the HPLC operation were set as in Test 1.
By ultrasonication the resulting mixture was formed into a uniform suspension, which was then shaken at room temperature for 2 hours. The mixture was filtered through a membrane filter (0.22 pm), and the filtrate was provided as a test solution. Using 5 μl of the test solution, a test was conducted by HPLC (the above operation conditions).

[3] = system: ovarian cancer and breast cancer; settings: Ann. int. Med. 111, 273, 1989; cited from earlier work
[4] = background statement; cited from earlier work
[5] = purified water with hydrochloric acid

| SMILES | GI50 ([1]; KB) | Activity ratio [1] | Dissolved amount (Y) [2] | solubility at 2 h [2, 5] | solubility thermodynamic at 2 h [2] | GI50 ([1]; KB cells, 3 days culture, XTT) | further results |
| --- | --- | --- | --- | --- | --- | --- | --- |
| CCCN(CCC)C1CCN(C(=O)O[C@H]2C(=O)[C@@]3(C)[C@H]([C@H](OC(=O)c4ccccc4)[C@]4(O)C[C@H](OC(=O)[C@H](O)[C@@H](NC(=O)OC(C)(C)C)c5ccccc5)C(C)=C2C4(C)C)[C@]2(OC(C)=O)CO[C@@H]2C[C@@H]3O)CC1 [Compound 6, 13-O-[3-(tert-Butoxycarbonylamino)-2-hydroxy-3-phenylpropionyl]-10-O-(4-dipropylaminopiperidinocarbonyl)-10-deacetylbaccatin III] | 0.73 ng/mL (≈ 0.000717 µM) | 2.7 |  |  |  |  |  |
| CCN1CCN(C(=O)O[C@H]2C(=O)[C@@]3(C)[C@H]([C@H](OC(=O)c4ccccc4)[C@]4(O)C[C@H](OC(=O)[C@H](O)[C@@H](NC(=O)OC(C)(C)C)c5ccccc5)C(C)=C2C4(C)C)[C@]2(OC(C)=O)CO[C@@H]2C[C@@H]3O)CC1 [Compound 42, 13-O-[3-(tert-Butoxycarbonylamino)-2-hydroxy-3-phenylpropionyl]-10-O-(4-ethylpiperazinocarbonyl)-10-deacetylbaccatin III] | 0.65 ng/mL (≈ 0.000686 µM) | 3.1 | 5.90 μg/5 μl | 1180 µg/mL (≈ 1240 µM) | 1180 µg/mL (≈ 1240 µM) |  |  |
| CC(=O)O[C@H]1C(=O)[C@@]2(C)[C@H]([C@H](OC(=O)c3ccccc3)[C@]3(O)C[C@H](OC(=O)[C@H](O)[C@@H](NC(=O)c4ccccc4)c4ccccc4)C(C)=C1C3(C)C)[C@]1(OC(C)=O)CO[C@@H]1C[C@@H]2O [Taxol, reference compound] | 2 ng/mL (≈ 0.00234 µM) |  |  |  |  |  | efficacy against ovarian cancer and breast cancer [3]: high efficacy against ovarian cancer and breast cancer; solubility in water (in words) [4]: sparingly soluble in water; solubility at 2 h ([2]; purified water): 0.4 µg/mL (≈ 0.468 µM) |
| CC(=O)O[C@@]12CO[C@@H]1C[C@H](O)[C@@]1(C)C(=O)[C@H](OC(=O)N3CCN(CC(=O)NC(C)C)CC3)C3=C(C)[C@@H](OC(=O)[C@H](O)[C@@H](NC(=O)OC(C)(C)C)c4ccccc4)C[C@@](O)([C@@H](OC(=O)c4ccccc4)[C@H]21)C3(C)C [Compound 45, 13-O-[3-(tert-Butoxycarbonylamino)-2-hydroxy-3-phenylpropionyl]-10-O-[4-(isopropylaminocarbonylmethyl)piperazinocarbonyl]-10-deacetylbaccatin III] |  | 2.3 |  |  |  | 0.86 ng/mL (≈ 0.000844 µM) |  |
| CC(=O)O[C@@]12CO[C@@H]1C[C@H](O)[C@@]1(C)C(=O)[C@H](OC(=O)N3CCC(N4CCCCC4)CC3)C3=C(C)[C@@H](OC(=O)[C@H](O)[C@@H](NC(=O)OC(C)(C)C)c4ccccc4)C[C@@](O)([C@@H](OC(=O)c4ccccc4)[C@H]21)C3(C)C [Compound 9, 13-O-[3-(tert-Butoxycarbonylamino)-2-hydroxy-3-phenylpropionyl]-10-O-(4-piperidinopiperidinocarbonyl)-10-deacetylbaccatin III] |  | 2.6 |  |  |  | 0.78 ng/mL (≈ 0.000778 µM) |  |
| CC(=O)O[C@H]1C(=O)[C@@]2(C)[C@H]([C@H](OC(=O)c3ccccc3)[C@]3(O)C[C@H](OC(=O)[C@H](O)[C@@H](NC(=O)N4CCC(N5CCCCC5)CC4)c4ccccc4)C(C)=C1C3(C)C)[C@]1(OC(C)=O)CO[C@@H]1C[C@@H]2O [Compound 58, 13-O-[2-Hydroxy-3-phenyl-3-(4-piperidinopiperidinocarbonylamino)propionyl]baccatin III] |  |  | 7.95 μg/5 μl | 1590 µg/mL (≈ 1680 µM) | 1590 µg/mL (≈ 1680 µM) |  |  |
| CC(=O)O[C@@]12CO[C@@H]1C[C@H](O)[C@@]1(C)C(=O)[C@H](OC(=O)N3CCC(N(C)C)CC3)C3=C(C)[C@@H](OC(=O)[C@H](O)[C@@H](NC(=O)OC(C)(C)C)c4ccccc4)C[C@@](O)([C@@H](OC(=O)c4ccccc4)[C@H]21)C3(C)C [Compound 3, 13-O-[3-(tert-Butoxycarbonylamino)-2-hydroxy-3-phenylpropionyl]-10-O-(4-dimethylaminopiperidinocarbonyl)-10-deacetylbaccatin III] |  |  | 6.31 μg/5 μl | 1260 µg/mL (≈ 1310 µM) | 1260 µg/mL (≈ 1310 µM) |  |  |
| CC(=O)O[C@@]12CO[C@@H]1C[C@H](O)[C@@]1(C)C(=O)[C@H](OC(=O)N3CCN(C)CC3)C3=C(C)[C@@H](OC(=O)[C@H](O)[C@@H](NC(=O)OC(C)(C)C)c4ccccc4)C[C@@](O)([C@@H](OC(=O)c4ccccc4)[C@H]21)C3(C)C [Compound 39, 13-O-[3-(tert-Butoxycarbonylamino)-2-hydroxy-3-phenylpropionyl]-10-O-(4-methylpiperazinocarbonyl)-10-deacetylbaccatin III] |  | 3.4 |  |  |  | 0.59 ng/mL (≈ 0.000632 µM) |  |
